Data published in US6635436B2, “Methods for the screening of non-recombinant cell lines capable of expressing a single PDE4 isoenzyme and for the screening of PDE4 inhibitors” (Warner-Lambert Company, priority 1999, dated 2003).

What was measured:
PDE4A = experiment: Semi-quantitative RT-PCR of PDE4A expression in treated human cell lines; format: cell-based; conditions: control normalized to 1
Description: (§1) RNA was purified using Tripure™ Isolation Reagent, a single-step liquid phase separation issued from the total RNA isolation method developed by Chomczynski and Sacchi (1987). Washed and pelleted cells were resuspended at a concentration of 1×10^6 cells/ml Tripure and the total RNA extracted was quantified spectrophotometrically. RT-PCR was carried out using the commercial PCR ELISA Dig Labelling Kit. First strand cDNA was generated from 1 μg of total RNA per sample using random hexamers to prime the reverse transcription (First Strand cDNA Synthesis Kit for RT-PCR) and was directly amplified by PCR following the addition of specific primer pairs. Oligonucleotide primers were: PDE4A, 5′-[…]-3′ (SEQ ID N^o1) and 5′-[…]-3′ (SEQ ID N^o2), defining a 439-bp product; PDE4B, 5′-[…]-3′ and 5′-[…]-3′, defining a 327-bp product; PDE4C, 5′-[…]-3′ and 5′-[…]-3′ defining a 331-bp product; PDE4D, 5′-[…]-3′ and 5′-[…]-3′, defining a 339-bp product. The 5′-biotin-labelled capture probes used for the detection of PCR fragments were: 5′-[…]-3′ for PDE4A, 5′-[…]-3′ for PDE4B, 5′-[…]-3′ for PDE4C, 5′-[…]-3′ for PDE4D. Briefly, this PCR ELISA allows the specific detection of PCR products in a semi-quantitative microtiter plate format. The PCR products are labelled with digoxigenin during the amplification process (dig labelling). The labelled PCR products are analyzed by solution hybridization to a specific capture probe that is complementary to the inner part of the amplification product (dig detection). This capture probe is labelled with biotin to allow immobilization of the hybrid to a streptavidin coated microtiterplate surface. Unspecific amplification products will not hybridized to this capture probe and thus will be removed during the following washing steps; The bound hybrid is detected by an anti-digoxigenin peroxidase conjugate and by use of the calorimetric substrate ABTS. In comparison with suitable standards the color signal can be used for semi-quantitative evaluation of an amplification reaction. In our experiments the PDE4 subtypes PCR fragments amplified in the control cells (cells non treated with any of the compound tested), were our standards and the optical densities found for these PCR-fragments were normalized to 1.
(§2) All the cell lines used in this study were obtained from the European Collection of Cell Culture (ECACC). U-937, HT-29, HL-60, Jurkat, MOLT-4, HK-293, CACO2 were grown in RPMI 1640 medium supplemented with 10% (v/v) heat-inactivated calf serum at 37° C. in an humidified atmosphere of 95% air-5% CO2. […] Cells in suspension were seeded at 10^6 cells/ml and adherent ones were used when confluent. After the required incubation times, 10^6 cells were used for mRNA extraction and 2.5×10^8 for proteins extraction.
(§3) The control cells received 1% DMSO for 2 hours or 3 days. After treated, the cells were washed and prepared for mRNA extraction as described in the Materials and Methods section. PCR fragments were quantified by semi-quantitative PCR: The expression of the subtypes in control cells was normalized to 1 to allow expression of the data found in the treated cells as an x-fold increase or decrease expression of each subtype in comparison to the control value.
(§4) The expression of the subtypes in control cells was normalized to 1 to be able to express the data found in the treated cells as an x-fold increase or decrease expression of each subtype in comparison to the control value. The results obtained are summarised in table 2 and here again, none of the treatment used was able to induce the expression of a C subtype.

PDE4B = experiment: Semi-quantitative RT-PCR of PDE4B expression in treated human cell lines; format: cell-based; conditions: control normalized to 1
Description: as §1, §2, §3, §4

PDE4D = experiment: Semi-quantitative RT-PCR of PDE4D expression in treated human cell lines; format: cell-based; conditions: control normalized to 1
Description: as §1, §2, §3, §4

PDE 4D3 = experiment: Semi-quantitative RT-PCR of PDE4D3 expression in treated human cell lines; format: cell-based; conditions: control normalized to 1
Description: as §1, §2, §3, §4

PDE4 = experiment: Chromatographic resolution and assay of PDE activities in control and PMA-treated cells; format: cell-based, human; conditions: HL-60 cells treated with 1 μM PMA for 72 hours; control cells 0.14
Description: as §2
The adherent cells were disrupted by trypsinisation and along with the non-adherent cells were washed carefully at least twice with sterile PBS and counted. […]
Phosphodiesterase activities were assayed using a modification of the method described by Smith et al. (1993) utilizing the observation that 5′-nucleotides bind very strongly to alumina while the cyclic nucleotides are readily eluted at neutral or slightly alkaline pH. […] The separated [^3H]cAMP was back-corrected for recovery using the separated and non-separated ^14C values and expressed as a fraction of the total [^3H]cAMP to give the amount of substrate hydrolyzed.
These studies were conducted originally to set up PDE4 subtype cellular assays, for this reason the cell lines that were expressing either a single or majority of a single subtype after the different treatments, were analysed for their phosphodiesterase activities. […]

SMILES | PDE4 subtype A x-fold change in expression vs control (number in brackets) (PDE4A; CACO-2 cells) [fold] | PDE4 subtype A x-fold change in expression vs control (number in brackets) (PDE4A; HK-293 cells) [fold] | PDE4 subtype A x-fold change in expression vs control (number in brackets) (PDE4A; HT-29 cells) [fold] | PDE4 subtype A x-fold change in expression vs control (number in brackets) (PDE4A; Jurkat cells) [fold] | PDE4 subtype A x-fold change in expression vs control (number in brackets) (PDE4A; Molt-4 cells) [fold] | PDE4 subtype B x-fold change in expression vs control (number in brackets) (PDE4B; HK-293 cells) [fold] | PDE4 subtype B x-fold change in expression vs control (number in brackets) (PDE4B; HL-60 cells) [fold] | PDE4 subtype B x-fold change in expression vs control (number in brackets) (PDE4B; Jurkat cells) [fold] | PDE4 subtype B x-fold change in expression vs control (number in brackets) (PDE4B; Molt-4 cells) [fold] | PDE4 subtype D x-fold change in expression vs control (number in brackets) (PDE4D; HL-60 cells) [fold] | PDE4 subtype D x-fold change in expression vs control (number in brackets) (PDE4D; HT-29 cells) [fold] | PDE4 subtype D x-fold change in expression vs control (number in brackets) (PDE4D; Jurkat cells) [fold] | PDE4 subtype D x-fold change in expression vs control (number in brackets) (PDE4D; Molt-4 cells) [fold] | PDE4 D3 x-fold change in expression vs control (number in brackets) (PDE 4D3; CACO-2 cells) [fold] | PDE4 D3 x-fold change in expression vs control (number in brackets) (PDE 4D3; HK-293 cells) [fold] | PDE4 D3 x-fold change in expression vs control (number in brackets) (PDE 4D3; HT-29 cells) [fold] | other results
C[C@@H]1C[C@H]2[C@@H]3CCC4=CC(=O)C=C[C@]4(C)[C@@]3(F)[C@@H](O)C[C@]2(C)[C@@]1(O)C(=O)CO [Dexamethasone, dexamethasone] | 1 | 1 | 1 | 1 | 2 | −1.5 | −1.2 | 1 | 1 | 1 | 1 | 1 | 1.1 | 1 | 1 | 1 | PDE4 subtype A x-fold change in expression vs control (number in brackets) (PDE4A; HL-60 cells): 1 fold; PDE4 subtype A x-fold change in expression vs control (number in brackets) (PDE4A; Molt-4 cells, listed as dexamethasone): +2 fold; PDE4 subtype D x-fold change in expression vs control (number in brackets) (PDE4D; CACO-2 cells): 1 fold; PDE4 subtype D x-fold change in expression vs control (number in brackets) (PDE4D; HK-293 cells): 1 fold; PDE4 D3 x-fold change in expression vs control (number in brackets) (PDE 4D3; HL-60 cells): 1 fold
CCCCCCCCCCCCCC(=O)O[C@@H]1[C@@H](C)[C@@]2(O)[C@@H](C=C(CO)C[C@]3(O)C(=O)C(C)=C[C@@H]23)[C@@H]2C(C)(C)[C@]12OC(C)=O [PMA, phorbol myristate acetate] | 1 | 1 | 1.5 | 1 | −1.5 | 1 | −12.2 | −2 | 1 | −14.5 | 1.8 | −1.9 | 1.1 | −1.1 | 1 | 1 | maximum PDE4 activity (PDE4): 0.9 pmol AMP formed/min/μl
